Reference: patent US20050271661A1, “Methods and reagents for the treatment of immunoinflammatory disorders” (priority 2004, published 2005)

What was measured:
p38 = p38 phosphorylation western blot, activated primary T cells; format: cell-based, human; conditions: primary T cells activated 30 minutes
Protocol: (§1) Purified primary human T-cells (10^7 T-cells at 1×10^6 cells/ml) were pretreated with various drugs for 30 min at 37° C. and then stimulated for 30 minutes with PMA and ionomycin. Cells were then pelleted and extracted with 2× protein load dye (Invitrogen, NP0008). Total cell lysates were boiled and centrifuged before loading. 10-15 μl of lysate (approximately 250,000 cells) per lane was run on a 10-12% Tris-Bis gel, or a 3-8% Tris-Acetate gel (precast from Invitrogen). Proteins were immunoblotted onto immobilon PVDF membrane (Millipore) for 30 min using an Owl Semi-Dry electroblotting system. Membranes were blocked with 4% milk for two hours and then incubated with appropriate primary antibodies, washed three times and then probed with secondary antibodies. Chemi-glow™ (Alpha Innotech) chemilluminescent detection solutions were added and image visualized and captured using an Alpha Imager 8900 (Alpha Innotech). NFAT1 was visualized using an antibody obtained from BD Transduction Laboratory (#610703). IκB-alpha was visualized using an antibody from Santa Cruz Biotechnology (#sc371). Mitogen activated protein kinases (MAPK) were visualized using the following antibodies obtained from Cell Signaling: ERK p44/p42 (phospho, #9101; total, #9102); p38 (phospho, #9211; total, #9212); and JNK/SAPK (phospho, #9251; total, #9252).
(§2) Purified primary T cells were activated for 30 minutes and extracted for western blot analysis. Activation of each MAPK was tracked using phosphospecific antibodies to a regulatory site on each type of MAPK, normalized by the measurement of total amounts of each MAPK species (FIGS. 4A-4C).

ERK1/2 = ERK1/2 phosphorylation western blot, activated primary T cells; format: cell-based, human; conditions: highest dose tested: cyclosporine 1 μM, prednisolone 3 μM, amoxapine 30 μM, paroxetine 30 μM
Protocol: as §1, §2

IκB = IκB degradation western blot, PI-activated primary T cells; format: cell-based, human; conditions: PI 30 min
Protocol: as §1
Primary T cells were activated in vitro with PI (30 min) and extracted for western blot analysis.

NFκB [1] = experiment: NFκB-dependent transcription, NFκB luciferase reporter in CCRF-CEM cells activated with PI; format: cell-based
From the text: (§3) Reporter plasmids were transfected into CCRF-CEM cells using nucleofection (Nucleofector; AMAXA, Germany). Reporter plasmids expressing firefly luciferase (Luc) were purchased from Stratagene. pNFAT-Luc contains four NFAT binding sites; pGRE-Luc contains four GRE sites, and pAP1-Luc contains seven AP1 binding sites. The NFκB luciferase reporter, p(IL6κB)3-50hu.IL6-luc+, contains three NFκB sites and was a generous gift of Dr. De Bosscher (University of Ghent, Belgium). 10^7 cells suspended in 100 μL Amaxa ‘R’ Cell-line solution were transferred to a cuvette. One μL (1 μg/μL) of solution containing reporter plasmid (firefly luciferase) and control plasmid (pRL-TK-Renilla) (Renilla luciferase) (Promega) at a ratio of (10:1) were added to the cell suspension. […] After transfection the cells were suspended in 200 μL medium, allowed to recover for an hour, equal volume of medium containing 2× drugs were added and incubated at 37° C. for 30 min. Then the cells were stimulated with PI for another five hours. The luciferase activity of each of plasmid and control Renilla-plasmid were measured as per the procedure in Promega Luciferase assay kit.
NFκB-dependent transcription was measured by transient transfection of an NFκB reporter plasmid into CCRF-CEM cells and subsequent activation with PI.

JNK = JNK activation (phosphorylation) western blot, activated primary T cells; format: cell-based, human; conditions: primary T cells activated 30 minutes
Protocol: as §1, with “#9252). […]” for “#9252).”

NFAT [2] = experiment: NFAT nuclear translocation by immunofluorescence in PI-activated CCRF-CEM cells; format: cell-based
From the text: NFAT1 was visualized using an antibody obtained from BD Transduction Laboratory (#610703).

NFAT [3] = experiment: NFAT dephosphorylation band shift on western blot, PMA/ionomycin-activated primary T cells; format: cell-based, human; conditions: up to 3 μM
Protocol: as §1, with “Mitogen activated protein kinases (MAPK) were visualized using the following antibodies obtained from Cell Signaling: ERK p44/p42 (phospho, #9101; total, #9102); p38 (phospho, #9211; total, #9212); and JNK/SAPK (phospho, #9251; total, #9252).” left out
T cells were isolated from the buffy coat of male donors between the ages of 35 to 50 years. These T cells were activated in vitro with PMA/ionomycin (PI) for 30 minutes and the phosphorylation of NFAT analyzed by mobility shift on a western blot. […]

NFκB [4] = conditions: activated CCRF-CEM cells, p65
NFAT [5] = experiment: NFAT-dependent transcription, NFAT luciferase reporter in CCRF-CEM cells activated with PI; format: cell-based
From the text: as §3

AP1 = experiment: AP1-dependent transcription, AP1 luciferase reporter in CCRF-CEM cells activated with PI; format: cell-based
From the text: as §3

In the case of `Clc1ccc2c(c1)C(N1CCNCC1)=Nc1ccccc1O2` [amoxapine], the “effect in the p38 assay” value (p38) is reported as “no effect”, the “prevention of phosphorylation of ERK1/2” value (ERK1/2) is reported as “not effective” and the “concentration at which IκB stabilization effects begin” value (IκB) is reported as 25 µM.

In the case of `O=C(/C=C/c1ccc(O)c(O)c1)OCCc1ccccc1` [CAPE, caffeic acid phenethyl ester], the “inhibition of NFκB-dependent transcription” value (NFκB [1]; CCRF-CEM cells, NFκB reporter, PI) is reported as “inhibited”.

For `C[C@]12C=CC(=O)C=C1CC[C@@H]1[C@@H]2[C@@H](O)C[C@@]2(C)[C@H]1CC[C@]2(O)C(=O)CO` [prednisolone], the “effect on JNK” value (JNK) was “no effect”, the “activity in NFAT translocation assay” value (NFAT [2]) was “not active” and the “effect on NFAT dephosphorylation” value (NFAT [3]) was “no effect”. The “effect in the p38 assay” value (p38) was “no effect”, the “effect on NFκB translocation” value (NFκB [4]) was “no effect” and the “inhibition of NFκB-dependent transcription” value (NFκB [1]; at 1 μM) was 30%. For the same molecule, the “prevention of phosphorylation of ERK1/2” value (ERK1/2) was “not effective”, the “inhibition of PI-stimulated NFAT transcription” value (NFAT [5]; even at high doses) was “no strong inhibition” and the “inhibition of AP1-dependent transcription” value (AP1; at 300 nM) was 30%. The “effect on IκB degradation” value (IκB) was “no effect”.

`Fc1ccc([C@@H]2CCNC[C@H]2COc2ccc3c(c2)OCO3)cc1` [paroxetine] was tested, and the IC50 (NFAT [2]; Homo sapiens, read-out: IC50, inhibition of NFAT translocation) was 30 µM, the “concentration above which some phospho-p38 inhibition is seen” value (p38) was “above 10 μM” and the “prevention of phosphorylation of ERK1/2” value (ERK1/2) was “not effective”. The IC50 (NFAT [5]; Homo sapiens, CCRF-CEM cells, NFAT reporter, read-out: IC50, inhibition of PI-stimulated NFAT transcription) was 9 µM, the IC50 (AP1; CCRF-CEM cells, AP1 reporter, PI) was 20 to 30 µM and the “concentration at which IκB stabilization effects begin” value (IκB) was 15 µM.
